Results published in publication PMC11472310, “Distinctive Immune Signatures Driven by Structural Alterations in Desmuramylpeptide NOD2 Agonists” (Journal of Medicinal Chemistry, 2024).

Assays:
human PBMCs = experiment: Cytokine release from peripheral blood mononuclear cells (LEGENDplex panel); assay type: cell-based; settings: 18 h; for production of proinflammatory cytokines and chemokines including IL-6, IL-8 and MCP-1: 2 μM alone (no LPS)
Text: The immunomodulatory effects of the selected desmuramylpeptides were examined in human primary peripheral blood mononuclear cells (PBMCs). This diverse mixture of immune cells provided a platform to investigate the effects of these NOD2 agonists within a physiologically relevant environment, encompassing other NOD2-interacting and downstream signaling proteins. […] Given that NOD2 activation often modulates the Toll-like receptor (TLR)-induced cytokine responses, we investigated the impact of combining desmuramylpeptides with lipopolysaccharide (LPS), a well-known TLR4 agonist, on cytokine secretion.[76]−[78]
The elicited cytokine profiles thus broadly reflect the structure–activity relationships obtained in the reporter gene assays.
Peripheral blood mononuclear cells were plated at a density of 1 × 10^6 cells/mL in 48-well plates containing 500 μL of growth medium. Cells were then treated with the compounds (2 μM) or the corresponding vehicle (0.1% DMSO), both in the absence and presence of LPS (10 ng/mL). Following an 18 h incubation period at 37 °C with 5% CO2, cell-free supernatants were collected and stored at −80 °C until analysis. […] Standard curves were constructed using recombinant cytokines provided in the kit. Data analysis was performed using Biolegend software Qognit and Prism (GraphPad, San Diego, CA, USA) software. The experiments were independently replicated four times. Statistical significance was determined using two-way analysis of variance (ANOVA) followed by Tukey’s multiple comparisons test.

hNOD2 = biological target: T1, hNOD2 (Homo sapiens, UniProt Q9HC29); experiment: HEK-Blue NOD2 cell line reporter assay (NF-κB-inducible SEAP); assay type: cell-based; settings: HEK-Blue NOD2 cells, 18 h, NF-κB transcriptional activity (SEAP); read-out: EC50 (nM), NOD2 agonistic activity
T1 construct: host or cells: HEK-Blue NOD2 cells (HEK293)
T1 sequence (Q9HC29 whole entry): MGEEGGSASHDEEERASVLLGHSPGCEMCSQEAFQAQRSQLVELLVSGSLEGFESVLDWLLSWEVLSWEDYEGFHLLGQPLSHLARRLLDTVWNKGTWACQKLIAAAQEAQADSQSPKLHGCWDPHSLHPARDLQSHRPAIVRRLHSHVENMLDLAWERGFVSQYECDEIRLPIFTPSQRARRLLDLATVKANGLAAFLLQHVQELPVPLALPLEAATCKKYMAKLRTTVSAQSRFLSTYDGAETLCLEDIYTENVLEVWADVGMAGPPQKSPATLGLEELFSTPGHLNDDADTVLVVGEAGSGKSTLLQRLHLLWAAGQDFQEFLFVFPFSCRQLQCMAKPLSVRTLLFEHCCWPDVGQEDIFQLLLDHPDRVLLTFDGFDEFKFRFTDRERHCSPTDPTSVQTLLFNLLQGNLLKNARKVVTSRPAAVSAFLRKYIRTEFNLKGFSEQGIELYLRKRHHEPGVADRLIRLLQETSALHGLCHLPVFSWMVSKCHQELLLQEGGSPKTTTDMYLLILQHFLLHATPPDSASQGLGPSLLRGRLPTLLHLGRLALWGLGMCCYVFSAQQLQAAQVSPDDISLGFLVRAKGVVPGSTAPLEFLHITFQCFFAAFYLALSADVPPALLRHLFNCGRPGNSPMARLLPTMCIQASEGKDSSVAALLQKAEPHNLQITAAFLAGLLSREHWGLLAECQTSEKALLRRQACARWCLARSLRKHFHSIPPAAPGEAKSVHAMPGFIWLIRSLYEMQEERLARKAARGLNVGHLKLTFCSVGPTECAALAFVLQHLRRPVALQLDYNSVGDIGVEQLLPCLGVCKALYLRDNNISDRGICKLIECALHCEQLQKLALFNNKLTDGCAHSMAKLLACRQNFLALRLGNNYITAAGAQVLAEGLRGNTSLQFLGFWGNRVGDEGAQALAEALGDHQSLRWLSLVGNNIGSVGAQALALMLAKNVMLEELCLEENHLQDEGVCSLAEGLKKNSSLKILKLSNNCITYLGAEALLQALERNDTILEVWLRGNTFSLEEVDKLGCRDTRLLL
Procedure: To assess the NOD2 agonistic potential of the synthesized desmuramylpeptides at a cellular level, we employed the HEK-Blue NOD2 cell line reporter assay, a validated and commercially available method. All synthesized compounds were evaluated for their dose-dependent activities to establish their EC50 values.
The HEK-Blue NOD1 and NOD2 cell line reporter assay was generated from HEK293 cells through cotransfection of the hNOD1 or hNOD2 gene, respectively, along with an NF-κB-inducible secreted embryonic alkaline phosphatase (SEAP) reporter gene. Upon activation of NOD1 or NOD2, NF-κB triggers the production of SEAP, which can be quantitatively measured colorimetrically. […] After 18 h of incubation at 37 °C with 5% CO2, SEAP activity was measured spectrophotometrically by absorbance at 630 nm (BioTek Synergy microplate reader; Winooski, VT, USA). EC50 values were determined using Prism software (version 9; GraphPad Software, CA, USA). Each experiment was conducted in duplicate and repeated in at least two independent biological replicates.

PBMCs = experiment: Direct cytotoxic effect of compounds on PBMCs (Sytox blue); assay type: cell-based
Procedure: Additionally, PBMCs and cancer cells alone were treated with desmuramylpeptides to assess any direct cytotoxic effects on these cells.
(§1) The PBMC cytotoxicity assays utilizing K562 cells were conducted following previously established methods, with some adjustments.[82] […] Meanwhile, K562 cells were stained with CFSE (Invitrogen, Carlsbad, CA, USA), washed twice with complete medium, and then added (1 × 10^4 cells per well) to the pretreated PBMCs to achieve a final effector cell to target tumor cell ratio of 40:1. Following a 4-h coincubation period at 37 °C with 5% CO2, cells were stained with Sytox blue dead cell stain (Invitrogen) and analyzed using an Attune NxT flow cytometer (Thermo Fisher Scientific, Waltham, MA, USA) along with FlowJo software (Tree Star, Inc., Ashland, OR, USA). Cells positive for both CFSE and Sytox blue were designated as dead K562 cells. PBMCs alone and CFSE-labeled cancer cells alone were also exposed to the compounds at equivalent concentrations and stained with Sytox blue to assess any direct cytotoxic effects of the compounds on PBMCs and cancer cells separately. Each experiment was conducted in duplicate and repeated in three independent biological replicates. Statistical analysis was performed using one-way ANOVA followed by Dunnett’s multiple comparisons test.

[1] = tested on: human blood monocyte subsets; experiment: Monocyte conversion assay in PBMCs (CD14/CD16 flow cytometry); assay type: cell-based; settings: 10 μM, 18 h, NT 19.5%
Text: Engagement of NOD2 has been reported to increase the levels of an anti-inflammatory monocyte subset, denoted as patrolling monocytes (CD14^–, CD16^+2), thus exerting a counterintuitive role in inflammatory processes, while concomitantly increasing the levels of total blood monocytes (released from bone marrow).[18] […] This process involves a transition from the inflammatory monocytes, typified by CD14^+CD16^–, through an intermediate subset of CD14^+CD16^+ monocytes. […] To recapitulate this phenomenon, we modified the reported procedure and employed PBMCs in lieu of isolated monocytes. Identification of human blood monocyte subsets was achieved through flow cytometry, utilizing the expression of CD14 and CD16 markers as distinguishing criteria. […] Similar to what has been reported (e.g., inactivity of murabutide),[18] also in our case not all NOD2 agonists were equally endowed with the ability to generate patrolling monocytes.
The monocyte conversion assay was conducted following previously established methods, with some adjustments.[18] Peripheral blood mononuclear cells were plated at a density of 3 × 10^6 cells/mL in 24-well plates containing 700 μL of growth medium. Cells were then treated with MDP and desmuramylpeptides (10 μM) or the corresponding vehicle (0.1% DMSO). Following an incubation period at 37 °C with 5% CO2, cells were transferred to 1.5 mL tube using phosphate-buffered saline (PBS) and scraper. The cells were blocked with human TruStain Fcx (BioLegend) and stained using antihuman CD16 antibodies/Alexa Fluor 488 (BioLegend); antihuman CD14 antibodies/PE-Cy7 (BioLegend); antihuman HLA-DR antibodies/APC-Fire750 (BioLegend) and blocked with TrueStain Monocyte Blocker. A viability dye Helix NP Blue (BioLegend) was added to the previous panel to discriminate live cells. PBMC were analyzed using an Attune NxT flow cytometer (Thermo Fisher Scientific, Waltham, MA, USA) and the FlowJo software (Tree Star, Inc., Ashland, OR, USA). Initially, lymphocytes (CD14^–, CD16^–) and NK (CD16^–, HLA-DR^–) were eliminated, after which classical, intermediate and nonclassical monocytes were specifically identified by selective gating strategy as follows: CD14^+ CD16^– (classical), CD14^+ CD16^+ (intermediate) and CD14^– CD16^+ (nonclassical). Each experiment was conducted in duplicate and repeated in three independent biological replicates.

K562 cancer cells = experiment: PBMC cytotoxicity against K562 cancer cells (flow cytometry); assay type: cell-based; settings: for cytotoxicity of PBMCs against K562 cells, cotreatment with LPS (relative to negative control) / Cytotoxicity (ratio to control), + LPS: 10 μM + LPS 1 μg/mL; for cytotoxicity of PBMCs against K562 cells, cotreatment with LPS (relative to negative control) / enhancement of cytotoxicity of PBMCs against K562 cells (relative to negative control): 18 h, then 4 h coincubation; for cytotoxicity of PBMCs against K562 cells, cotreatment with LPS (relative to negative control): 40:1; for Cytotoxicity (ratio to control), + LPS / Cytotoxicity (ratio to control): Table S2; for Cytotoxicity (ratio to control) / enhancement of cytotoxicity of PBMCs against K562 cells (relative to negative control): alone: compounds 10 μM, LPS 1 μg/mL, IL-2 200 U/mL; for enhancement of cytotoxicity of PBMCs against K562 cells (relative to negative control): effector:target 40:1
Procedure: In this study, we investigated the potential of desmuramylpeptides, both alone and in combination with LPS, to enhance the cytotoxic activity of PBMCs against cancer cells employing a flow-cytometry-based cytotoxicity assay based on coincubation of preactivated PBMCs with fluorescently labeled K562 cancer cells.[82] Among the diverse subpopulations within PBMCs, natural killer (NK) cells play a pivotal role in detecting and eliminating cancer cells. NOD2-mediated NK cell activity against cancer cells arises from both direct NOD2 agonist elicited cytolytic activity of NK cells[83] and indirect activation through cytokine release by other NOD2-responsive cells, such as monocytes, which comprise approximately 10% of PBMCs; such interactions potentially reinforce the immune response.[84] […] To that end, we utilized the entire PBMC population as effector cells rather than isolated NK cells, to mimic conditions more closely resembling the in vivo environment while K562 chronic myelogenous leukemia cells were used as the target cells in a 40:1 effector to target cell ratio.[87]
as §1

BMDC/T-cell cocultures = experiment: T cell cytokine release in BMDC/T-cell cocultures; assay type: cell-based, C57BL/6 mouse; settings: 10 μM, 72 h coculture
Procedure: (§2) For this study, we narrowed down the selection of suitable desmuramylpeptides even further. In order to assess the adjuvant potential of selected desmuramylpeptides with regard to their effect on DC-mediated activation of CD4^+ and CD8^+ T cells, we conducted an ex vivo antigen-presentation assay utilizing C57BL/6 mouse bone marrow-derived DCs (BMDCs). Upon stimulation with desmuramylpeptides at 10 μM, in conjunction with ovalbumin soluble protein (50 μg/mL), BMDCs were cocultured with carboxyfluorescein succinimidyl ester (CFSE)-labeled naïve ovalbumin-specific CD4^+ or CD8^+ T cells, which were isolated from splenocytes of OT II and OT I transgenic mice, respectively. […] Additionally, we investigated how the priming of T cells elicited by the tested compounds impacted the cytokine profiles secreted in BMDC/T-cell cocultures.
Following 72 h of coincubation with BMDCs (pretreated with desmuramylpeptides [10 μM] and washed), supernatants from CD4^+ and CD8^+ T cells were harvested as previously described. […] Standard curves were constructed using recombinant cytokines provided in the kit. Data analysis was conducted using FlowJo (Tree Star, Inc., Ashland, OR, USA) and Prism (GraphPad, San Diego, CA, USA) software. Each experiment was performed in duplicate and replicated in two independent biological runs.

[2] = tested on: CD4+ T cells cocultured with BMDCs; experiment: BMDC antigen presentation to ovalbumin-specific CD4+ T cells (OT II); assay type: cell-based, C57BL/6 mouse; settings: BMDCs pretreated 10 μM + ovalbumin 50 μg/mL 18 h, coculture 72 h; OVA-treated cells 63.8%
Procedure: as §2
(§3) CD4^+ and CD8^+ T cells were isolated from splenocytes of OT II and OT I transgenic mice using CD4^+ and CD8^+ T cell isolation kits (Miltenyi Biotec, Germany) following the manufacturer’s instructions. The purified T cells were labeled with CFSE (Invitrogen, Carlsbad, CA, USA) and subsequently washed. Next, 5 × 10^4 T cells were combined with 1 × 10^4 BMDCs/well (pretreated with desmuramylpeptides at 10 μM and 50 μg/mL ovalbumin [Invivogen, San Diego, CA, USA] for 18 h and then washed). Following a 72-h incubation period at 37 °C with 5% CO2, supernatants were harvested and stored at −80 °C for cytokine analysis. The cells were then stained with Fixable viability dye eFluor 780 (eBioscience, Thermo Fisher Scientific, MA, USA), anti-Thy1.2-PE-Cy7 antibodies (Biolegend, San Diego, CA, USA), anti-CD8-eFluor450 antibodies (eBioscience), anti-CD4-eFluor450 antibodies (eBioscience), and anti-CD25-APC antibodies (Biolegend) before analysis using a Beckman Coulter Cytoflex S flow cytometer (CA, USA) and FlowJo software (Tree Star, Inc., Ashland, OR, USA). Live Thy1.2+/CD4+ and Thy1.2+/CD8+ cells were assessed for CFSE dilution and CD25 expression. Each experiment was performed in duplicate and repeated in two independent biological replicates. Statistical significance was determined using paired t tests.

[3] = tested on: CD8+ T cells cocultured with BMDCs; experiment: BMDC antigen cross-presentation to ovalbumin-specific CD8+ T cells (OT I); assay type: cell-based, C57BL/6 mouse; settings: BMDCs pretreated 10 μM + ovalbumin 50 μg/mL 18 h, coculture 72 h; OVA-treated cells 23.3%
Procedure: as §2
as §3, with “Each experiment was performed in duplicate and repeated in two independent biological replicates.” left out

[4] = Table S2, alone: compounds 10 μM, LPS 1 μg/mL, IL-2 200 U/mL

| Compound | levels of LPS-induced IL-10 (human PBMCs; 2 μM + LPS 10 ng/mL) | production of proinflammatory cytokines and chemokines including IL-6, IL-8 and MCP-1 (human PBMCs) | EC50 (hNOD2) [nM] | Percent of dead PBMCs (PBMCs; human, 18 h, 10 μM) | Percent of dead PBMCs, + LPS (PBMCs; human, 18 h, 10 μM) | levels of nonclassical monocytes [1] [%] | cytotoxicity of PBMCs against K562 cells, cotreatment with LPS (relative to negative control) (K562 cancer cells) [fold] | Cytotoxicity (ratio to control), + LPS (K562 cancer cells) | Cytotoxicity (ratio to control) (K562 cancer cells) | enhancement of cytotoxicity of PBMCs against K562 cells (relative to negative control) (K562 cancer cells) | amounts of IL-1β, IL-6, IL-10, TNF-α and IFN-γ compared to the MDP/LPS combination (human PBMCs; 2 μM + LPS 10 ng/mL) | levels of secreted MCP-1 compared to the MDP/LPS combination (human PBMCs; 2 μM + LPS 10 ng/mL) | levels of IL-6 and TNF-α secreted by CD4+ T cells (BMDC/T-cell cocultures) | Percent of dead PBMCs, + LPS (PBMCs; Table S2, 10 μM + LPS 1 μg/mL) | Percent of dead PBMCs (PBMCs; [4]) | fraction of activated and proliferating CD4+ T-cells (CD25+, CFSE low) [2] [%] | fraction of activated and proliferating CD8+ T-cells (CD25+, CFSE low) [3] [%] |
| --- | --- | --- | --- | --- | --- | --- | --- | --- | --- | --- | --- | --- | --- | --- | --- | --- | --- |
| CC(=O)N[C@H]1C(O)O[C@H](CO)[C@@H](O)[C@@H]1O[C@H](C)C(=O)N[C@@H](C)C(=O)N[C@H](CCC(=O)O)C(N)=O (mixture of isomers) [MDP, muramyl dipeptide, reference compound] | amplified | minor increases | 205 ± 64 | 1.11% ± 0.15% | 7.95% ± 0.95% | 31.5 | 2.71 | 2.71 ± 0.16 | 1.17 ± 0.07 | no activity |  |  |  |  |  |  |  |
| CCOC(=O)[C@@H](CCC(=O)NC12C[C@H]3C[C@@H](C1)C[C@@H](C2)C3)NC(=O)[C@@H](NC(=O)CNC(=O)/C=C/c1ccc(O)c(OC)c1)C(C)C [Compound 28, Ethyl N^5-((3S,5S,7S)-Adamantan-1-yl)-N^2-((E)-3-(4-hydroxy-3-methoxyphenyl)acryloyl)glycyl-L-valyl-D-glutaminate] | opposite | smaller increases | > 10000 |  |  |  | 2.19 | 2.19 ± 0.07 | 0.91 ± 0.02 | devoid of the capacity to induce cytotoxicity | lesser amounts | on par | slightly increased | 10.44% ± 0.63% | 0.99% ± 0.21% | 67.0 |  |
| lipopolysaccharide [LPS, reference compound] |  |  |  |  |  |  |  |  | 1.8 ± 0.08 | 1.80 fold |  |  |  |  | 4.16% ± 0.47 | 80.4 | 55.6 |
